The test system of one experiment is C. difficile 630Δerm. Kind of experiment: Simplified agar dilution susceptibility of C. difficile carrying plasmid-based polC alleles. Conditions: for MIC: Clostridioides difficile, 48 h. Format: cell-based, Clostridioides difficile. As to the method: E. coli strains were cultured aerobically at 37 °C at 180 rpm in Lysogeny Broth (LB) (1% w/v tryptone (Oxoid), 1% w/v NaCl (J.T.Baker), 0.5% w/v yeast extract). C. difficile strains were cultured in Brain Heart Infusion broth (BHI) (3.7% w/v brain heart infusion broth (Oxoid), 0.5% w/v yeast extract). Culturing of C. difficile was carried out anaerobically at 37 °C at 140 rpm in an atmosphere of 85% N2, 10% CO2, and 5% H2, using a Don Whitley VA1000 workstation. For solid media, 1.5% w/v agar (Alfa Aesar) was used. Where appropriate, media were supplemented with 50 mg/L colistin (Cayman Chemical), chloramphenicol (10 mg/L for liquid medium and 20 mg/L for agar plates), 30 mg/L kanamycin, and 15 mg/L thiamphenicol.
DNA fragments were amplified by PCR from total genomic DNA of C. difficile strain 630Δerm[40] with Q5 High-Fidelity DNA Polymerase (NEB), using oligonucleotides oNM-001/oNM-003 (amplifying the polC gene with its presumptive promoter). The oNM-001/oNM-003 PCR fragment was digested using KpnI (Roche) and BamHI (Thermo Scientific). Digesting of plasmid pAP24[65] with enzymes allowed for the isolation of plasmid backbone after agarose gel electrophoresis. The backbone was ligated to the digested PCR fragments and transformed into chemically competent DH5α E. coli cells by heat shock; transformants were selected on media containing chloramphenicol. To generate plasmids carrying variant polC genes, mutations were introduced in the plasmids harbouring wild-type polC using QuikChange Site-Directed Mutagenesis and verified by Sanger sequencing using primers listed in Supplementary Table 3. An overview of all constructed plasmids and strains can be found in Supplementary Table 4 and 5.
E. coli donor strain CA434 was transformed with the plasmid to be transferred and subsequently grown on agar plates containing chloramphenicol and kanamycin. A 1 mL aliquot of 20 h grown liquid E. coli transformant culture was pelleted by centrifugation (2 min at 10,000 x g) and cells were resuspended in 200 µL non-sporulating C. difficile 630Δerm culture. The mixture was plated onto non-selective BHI agar in 5 µL spots and after 20 h incubation, cells were harvested in 1 mL pre-reduced phosphate-buffered saline and plated in 100 µL aliquots on BHI agar supplemented with thiamphenicol and colistin. Putative transconjugants were confirmed by PCRs with primers oWKS-1070 and oWKS-1071 (targeting chromosomal gluD) and oWKS-1387, oWKS-1388, oWKS-1389, and oWKS-1390 (targeting traJ or repA on the plasmid). Note that these strains are merodiploid and carry a wild-type chromosomal copy of polC.
Susceptibilities of the parental and plasmid-carrying strains to IBZ and ACX-801 were determined using a simplified agar dilution method. In short, C. difficile strains were cultured for 20 h in liquid BHI. Bacterial cells were harvested by 10-min centrifugation at 3220 x g and resuspended in pre-reduced phosphate-buffered saline to a McFarland turbidity standard of 1.0. Suspensions were inoculated as 5 µL spots onto BHI agar containing different concentrations of inhibitor (0, 2, 4, 8, 16, 32, 64 mg/L). MICs (defined as the first dilution with severely impaired or no visible growth) were determined after 48 h and imaged on a SCAN500 plate imager (Interscience).
(In general: In agar dilution, organisms are placed on agar that contains the substance at set levels.)

Experiment [1] addresses exonuclease-inactivated E. faecium PolC (Exo^null, PolC^D431A+E433A) (Enterococcus faecium, UniProt A0A9X4B319, D429A/E431A). Kind of experiment: Real-time DNA primer extension assay. The class given is biochemical. The conditions noted are these: for IC50: n = 3, ± SEM. On the procedure:
Polymerase activity was monitored in real-time[31],[32] with a 42-nt long 5’ carboxyfluorescein-labelled DNA oligonucleotide template strand (DNASP8_42) annealed to a 30-nt primer oligonucleotide (oMU014). Polymerase activity in this assay is monitored by measuring fluorescence quenching of the labelled DNA template as a result of primer extension by PolC (for details see Supplementary Fig. 1b, c). Both primers were HPLC purified. Primer extension assays were performed in Reaction Buffer (see Gel-based polymerase and exonuclease assays) supplemented with 0.5 mg/mL BSA, 0.05% Tween20 and 25 uM of each dNTP (SRB) in 384-well Black Round Bottom plates (Corning 4514). The polymerase was diluted in the SRB and incubated for at least 5 min in the presence of inhibitor or solvent, with a final solvent concentration of 1%. The reaction was initiated by the addition of an equal volume of DNA substrate in SRB as described below. Fluorescence emission data was collected with a BMG Labtech PHERAstar FSX reader for 30 min at room temperature.
Compounds were dispensed with an Echo acoustic liquid handler (Beckman Coulter). All compounds were dissolved to 1 mM and 10 mM stocks in 100% DMSO and transferred to Echo LDV or PP source plates (Labcyte, Inc., CA), then dispensed to 384-well plates with a Labcyte Echo550 or Echo650 acoustic dispenser at volumes of 2.5 to 100 nL per well. […] A Mantis microfluidic liquid dispenser (Formulatrix) was used to dispense 5 µL polymerase and 5 µL substrate DNA (individually diluted in SRB) per well. […] The final concentration of DNA was 70 nM.
Data were analysed and standard error of the means (SEM) determined in Prism 8.4.2 and 10.2.3 (GraphPad). Raw time-course polymerase activity was plotted against time, with SEM of triplicates determined. The rate of activity (represented by signal quenching) was determined during the first 8 min (linear stage) by calculating the slope of fluorescence intensity change (converted to a positive value) over time (in seconds). The slopes were then normalized to percentage activity (%); per ‘replicate range’, 100% activity was defined as polymerase activity in the absence of inhibitor (polymerase control), and 0% activity was determined in the absence of polymerase (DNA signal; negative control). The SEM was determined between ‘replicate ranges’. The IC50 was determined using the dose-response (inhibition) nonlinear regression ‘[Inhibitor] vs. response (three parameters)’ without constraints.

[2] abbreviates: plasmid carrying polC-p.F1258I versus wild-type strain.
The mark [3] stands for this setting: plasmid carrying polC-p.F1258L versus wild-type strain.
Setting [4] is: plasmid carrying polC-p.F1258S versus wild-type strain.
Setting [5] is: Fig. 1e source data, inhibitor 2.5 uM, replicates 1-3.
[6] abbreviates: Fig. 1e source data, inhibitor 4 uM, replicates 1-3.
Where [7] appears, read: Fig. 1e source data, inhibitor 5.75 uM, replicates 1-3.
The mark [8] stands for this setting: Fig. 1e source data, inhibitor 8.75 uM, replicates 1-3.
[9] abbreviates: Fig. 1e source data, inhibitor 12.5 uM, replicates 1-3.
Where [10] appears, read: Fig. 1e source data, inhibitor 20 uM, replicates 1-3.
Setting [11] is: Fig. 1e source data, inhibitor 30 uM, replicates 1-3.
The mark [12] stands for this setting: Fig. 1e source data, inhibitor 45 uM, replicates 1-3.
Setting [13] is: Fig. 1e source data, inhibitor 67.5 uM, replicates 1-3.
[14] abbreviates: Fig. 1e source data, inhibitor 100 uM, replicates 1-3.
Where [15] appears, read: Fig. 4b source data, PolC (Exonull), inhibitor 1 uM.
The mark [16] stands for this setting: Fig. 4b source data, PolC (Exonull), inhibitor 1.75 uM.
Where [17] appears, read: Fig. 4b source data, PolC (Exonull), inhibitor 2.5 uM.
[18] abbreviates: Fig. 4b source data, PolC (Exonull), inhibitor 4 uM.
[19] abbreviates: Fig. 4b source data, PolC (Exonull), inhibitor 5.75 uM.
Setting [20] is: Fig. 4b source data, PolC (Exonull), inhibitor 8.8 uM.
[21] abbreviates: Fig. 4b source data, PolC (Exonull), inhibitor 20 uM.
Setting [22] is: IC50, Fig. 1e, inhibitor 2.5-100 μM.
Where [23] appears, read: IC50 PolC, Fig. 4b, wild-type PolC (exonuclease-inactivated), inhibitor up to 225 μM.

≈ marks a conversion by molar mass, not a printed value. Where “and” joins values, the source holds several entries; their conditions need not be identical. Equal entries are not always repeated. Where only a bound is given, the exact number is not on record here.

In general, MIC refers to the lowest concentration that inhibits growth of the organism. Low readings indicate a more susceptible organism, high ones a less susceptible organism. In general, IC50 refers to the concentration at which inhibition is half-maximal. Read a low IC50 as higher potency. Take `O=c1[nH]c(NCc2ccc(Cl)c(Cl)c2)nc2ncn(CCN3CCOCC3)c12` [IBZ, N^2-(3,4-dichlorobenzyl)-7-(2-[1-morpholinyl]ethyl)guanine]: the lowest concentration to inhibit growth against C. difficile 630Δerm (MIC) was 2 µg/mL (≈ 4.72 µM). Besides, the “increase of MIC” value is listed as 8 fold with C. difficile 630Δerm (setting [2]), 32 fold in the experiment on C. difficile 630Δerm (setting [3]) and 2 fold in the experiment with C. difficile 630Δerm (setting [4]). The “rate of activity (slope of fluorescence intensity change over time)” value in experiment [1] (setting [5]) was 31.9 and 18.7 and 16.2; in experiment [1] (setting [6]) it was 28.6 and 14.0; in experiment [1] (setting [7]), 24.9 and 15.1 and 11.5; in experiment [1] (setting [8]), 19.6 and 9.9 and 9.1; in experiment [1] (setting [9]), 18.4 and 12.8 and 8.3; in experiment [1] (setting [10]) it was 8.2 and 4.7. The “rate of activity (slope of fluorescence intensity change over time)” value was 9.1 and 5.5 and 3.7 in experiment [1] (setting [11]); 6.8 and 2.9 and 1.6 in experiment [1] (setting [12]); 4.7 and 1.7 and -0.348 in experiment [1] (setting [13]); -0.9 and -0.439 and 1.4 in experiment [1] (setting [14]); 34.5 and 33.9 and 33.6 in experiment [1] (setting [15]); 31.8 and 30.8 in experiment [1] (setting [16]). Moreover, the “rate of activity (slope of fluorescence intensity change over time)” value in experiment [1] (setting [17]) is 27.4 and 24.3; in experiment [1] (setting [18]), 19.3 and 20.4; in experiment [1] (setting [19]), 12.7 and 13.8; in experiment [1] (setting [20]), 8.9 and 8.1 and 9.9; in experiment [1] (setting [21]), 4.0 and 3.7 and 2.8. Further, the half-maximal inhibitory concentration (IC50) in experiment [1] (setting [22]) stood at 12.3 µM; in experiment [1] (setting [23]), 4.7 ± 0.3 µM.

In turn, `O=c1[nH]c(NCc2ccc3c(c2)OC(F)(F)O3)nc2c(F)nn(CCO)c12` [ACX-801, 5-(((2,2-difluorobenzo[d][1,3]dioxol-5-yl)methyl)amino)-3-fluoro-1-(2-hydroxyethyl)-1,6-dihydro-7H-pyrazolo[4,3-d]pyrimidin-7-one] yielded an MIC against C. difficile 630Δerm of 2 µg/mL (≈ 5.22 µM). Also, the “increase in the MIC” value in the experiment on C. difficile 630Δerm (plasmid carrying polC-p.A1263T versus wild-type strain) is “fourfold”. Besides, the “increase of MIC” value with C. difficile 630Δerm (setting [2]) is 32 fold; in the experiment on C. difficile 630Δerm (setting [3]), no less than 32 fold; in the experiment with C. difficile 630Δerm (setting [4]) it was 4 fold. Besides, the “rate of activity (slope of fluorescence intensity change over time)” value was 16.9 and 13.9 and 11.9 in experiment [1] (setting [5]); 8.8 and 10.0 in experiment [1] (setting [6]); 8.5 and 6.8 and 7.4 in experiment [1] (setting [7]); 6.9 and 3.4 and 4.8 in experiment [1] (setting [8]); 9.5 and 6.4 and 6.3 in experiment [1] (setting [9]); 3.9 and 4.0 and 3.8 in experiment [1] (setting [10]). Also, the “rate of activity (slope of fluorescence intensity change over time)” value in experiment [1] (setting [11]) was 1.2 (2×) and 2.5; in experiment [1] (setting [12]), 0.4 and -0.11 and -1.5; in experiment [1] (setting [13]), -0.534 and -0.6 and -2.3; in experiment [1] (setting [14]), -1.1 and -0.9 and -1.0; in experiment [1] (setting [15]), 39.9 and 41.9; in experiment [1] (setting [16]) it was 37.2 and 42.3 and 40.2. Besides, the “rate of activity (slope of fluorescence intensity change over time)” value in experiment [1] (setting [17]) is 36.3 and 36.1; in experiment [1] (setting [18]), 30.8 and 32.5 and 32.0; in experiment [1] (setting [19]), 23.4 and 22.7 and 23.0; in experiment [1] (setting [20]), 23.6 and 23.3 and 21.3; in experiment [1] (setting [21]), 11.8 and 10.7 and 11.9; in experiment [1] (Fig. 4b source data, PolC (Exonull), inhibitor 30 uM), 6.7 and 7.0 and 4.9. In addition, the IC50 in experiment [1] (setting [22]) was determined as 5.8 µM; in experiment [1] (setting [23]), 11.7 ± 1.1 µM.

These data come from article PMC12592400, “A unique inhibitor conformation selectively targets the DNA polymerase PolC of Gram-positive priority pathogens” (Nature Communications, 2025).
